According to patent publication US10174036B2, “Substituted pyrazoles as JAK inhibitors” (WUXI FORTUNE PHARMACEUTICAL CO., LTD, priority 2015, dated 2019):
Like-named read-outs stand apart in the source and are kept apart here.

Key:
Format in all cases: biochemical
JAK2 = target: T1, JAK2 (Homo sapiens, UniProt O60674); assay: Test for in vitro activity of JAK2 kinase (LANCE Ultra ULight-JAK-1 peptide)
T1 construct: purchased Life technology
Method: (§1) Test for In Vitro Activity of Jak1, Jak2, and Jak3 Kinase
(§2) Recombinant human […] of JAK1, JAK2 and JAK3 were purchased from Life technology. LANCE Ultra ULight™-JAK-1 (Tyr1023) peptide and LANCE Eu-W1024 Anti-phosphotyrosine (PT66) were purchased from PerkinElmer. Multimode ELISA, Envison(PerkinElmer) reader was used.
The reaction was carried out at room temperature for 60 min and the reaction system was 10 ul.
(§3) Determination for Reaction
(§4) 10 ul detection reagent was added to reaction plate, wherein the final concentration of LANCE Eu-W1024 Anti-phosphotyrosine (PT66) was 2 nM, the final concentration of EDTA was […], incubated at room temperature for 60 min, with Envison reader.
(§5) The reading was converted to inhibition ratio (%) by the following formula: the inhibition ratio (%)=([…])/(Max−Min)×100%.

JAK3 = target: T2, JAK3 (Homo sapiens, UniProt P52333); assay: Test for in vitro activity of JAK3 kinase (LANCE Ultra ULight-JAK-1 peptide)
T2 construct: purchased Life technology
T2 sequence (P52333 1-1124): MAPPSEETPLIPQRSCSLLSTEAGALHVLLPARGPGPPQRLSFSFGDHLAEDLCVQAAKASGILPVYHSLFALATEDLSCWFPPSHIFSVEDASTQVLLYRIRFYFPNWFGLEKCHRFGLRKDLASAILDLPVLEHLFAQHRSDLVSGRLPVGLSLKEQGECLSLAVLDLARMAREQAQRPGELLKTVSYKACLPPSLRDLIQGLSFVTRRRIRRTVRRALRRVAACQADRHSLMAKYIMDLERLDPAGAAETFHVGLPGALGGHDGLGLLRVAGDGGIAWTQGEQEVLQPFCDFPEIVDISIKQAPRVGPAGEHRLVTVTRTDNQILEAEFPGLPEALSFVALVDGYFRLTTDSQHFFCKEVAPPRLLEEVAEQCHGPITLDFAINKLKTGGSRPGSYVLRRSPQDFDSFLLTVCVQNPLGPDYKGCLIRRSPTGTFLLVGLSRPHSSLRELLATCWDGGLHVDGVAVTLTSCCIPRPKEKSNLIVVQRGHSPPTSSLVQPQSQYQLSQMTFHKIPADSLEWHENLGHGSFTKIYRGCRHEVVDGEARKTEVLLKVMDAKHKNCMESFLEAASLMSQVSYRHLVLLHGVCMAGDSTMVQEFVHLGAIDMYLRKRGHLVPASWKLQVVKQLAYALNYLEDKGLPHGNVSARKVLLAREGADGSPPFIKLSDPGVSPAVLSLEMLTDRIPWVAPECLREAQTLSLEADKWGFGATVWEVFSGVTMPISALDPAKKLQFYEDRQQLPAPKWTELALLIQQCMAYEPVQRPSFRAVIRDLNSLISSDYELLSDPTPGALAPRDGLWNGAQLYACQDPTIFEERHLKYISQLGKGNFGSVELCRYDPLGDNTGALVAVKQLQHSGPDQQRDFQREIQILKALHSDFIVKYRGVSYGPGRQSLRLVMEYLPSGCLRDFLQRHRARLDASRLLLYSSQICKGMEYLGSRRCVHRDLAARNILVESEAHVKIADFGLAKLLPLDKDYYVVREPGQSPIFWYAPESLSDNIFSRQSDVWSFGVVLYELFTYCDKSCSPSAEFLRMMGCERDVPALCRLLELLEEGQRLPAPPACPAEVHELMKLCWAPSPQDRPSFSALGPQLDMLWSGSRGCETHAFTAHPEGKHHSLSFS
Method: as §1, §2
0.05 nM of JAK3 Protein kinase, 50 nM of LANCE Ultra ULight™-JAK-1(Tyr1023) peptide, 4 uM of ATP, 50 mM of HEPES (pH 7.5), 10 mM of MgCl2, 1 mM of EGTA, 2 mM of DTT, 0.01% BRIJ-35. […] The reaction was carried out at room temperature for 90 min and the reaction system was 10 ul.
as §3, §4, §5

JAK1 = target: T3, JAK1 (Homo sapiens, UniProt P23458); assay: Test for in vitro activity of JAK1 kinase (LANCE Ultra ULight-JAK-1 peptide); conditions: selectivity ratio JAK1 versus JAK2; class symbol
T3 construct: purchased Life technology
Method: as §1, §2
The reaction was carried out at room temperature for 90 min and the reaction system was 10 ul.
as §3, §4, §5

[1] = recombinant human JAK2, 12 uM ATP, 60 min, class symbol
[2] = selectivity ratio JAK3 versus JAK2, class symbol

T3 sequence (P23458 whole entry): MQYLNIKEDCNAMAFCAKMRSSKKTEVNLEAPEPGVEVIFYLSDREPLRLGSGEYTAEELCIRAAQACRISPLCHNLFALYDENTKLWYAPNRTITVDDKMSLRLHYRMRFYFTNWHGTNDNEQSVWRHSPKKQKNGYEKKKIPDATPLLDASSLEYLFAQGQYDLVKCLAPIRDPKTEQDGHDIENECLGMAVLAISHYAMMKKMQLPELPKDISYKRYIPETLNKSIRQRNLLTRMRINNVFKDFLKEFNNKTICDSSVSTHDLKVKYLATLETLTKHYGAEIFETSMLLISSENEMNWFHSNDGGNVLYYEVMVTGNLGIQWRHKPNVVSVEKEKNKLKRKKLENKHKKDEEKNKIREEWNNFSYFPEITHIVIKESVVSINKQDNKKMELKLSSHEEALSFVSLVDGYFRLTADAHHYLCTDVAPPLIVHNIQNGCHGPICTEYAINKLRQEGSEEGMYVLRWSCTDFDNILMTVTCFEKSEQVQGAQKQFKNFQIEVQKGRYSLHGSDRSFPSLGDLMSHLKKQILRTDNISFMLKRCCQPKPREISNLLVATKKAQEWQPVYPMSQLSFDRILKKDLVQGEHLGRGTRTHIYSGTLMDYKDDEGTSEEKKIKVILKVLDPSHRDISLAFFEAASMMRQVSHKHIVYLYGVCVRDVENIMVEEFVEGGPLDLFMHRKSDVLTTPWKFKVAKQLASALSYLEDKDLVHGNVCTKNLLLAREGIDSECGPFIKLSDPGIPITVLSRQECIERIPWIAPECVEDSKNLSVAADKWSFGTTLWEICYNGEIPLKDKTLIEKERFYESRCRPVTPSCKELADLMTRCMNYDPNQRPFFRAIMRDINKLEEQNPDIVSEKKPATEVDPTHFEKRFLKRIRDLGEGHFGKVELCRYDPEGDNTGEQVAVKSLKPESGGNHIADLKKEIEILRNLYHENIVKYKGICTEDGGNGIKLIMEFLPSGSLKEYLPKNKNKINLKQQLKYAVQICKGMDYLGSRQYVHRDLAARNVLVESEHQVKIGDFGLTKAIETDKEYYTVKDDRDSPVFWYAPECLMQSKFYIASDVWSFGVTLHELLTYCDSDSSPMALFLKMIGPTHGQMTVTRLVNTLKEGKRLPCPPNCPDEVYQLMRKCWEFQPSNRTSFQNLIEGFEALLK
T1 sequence (O60674 whole entry): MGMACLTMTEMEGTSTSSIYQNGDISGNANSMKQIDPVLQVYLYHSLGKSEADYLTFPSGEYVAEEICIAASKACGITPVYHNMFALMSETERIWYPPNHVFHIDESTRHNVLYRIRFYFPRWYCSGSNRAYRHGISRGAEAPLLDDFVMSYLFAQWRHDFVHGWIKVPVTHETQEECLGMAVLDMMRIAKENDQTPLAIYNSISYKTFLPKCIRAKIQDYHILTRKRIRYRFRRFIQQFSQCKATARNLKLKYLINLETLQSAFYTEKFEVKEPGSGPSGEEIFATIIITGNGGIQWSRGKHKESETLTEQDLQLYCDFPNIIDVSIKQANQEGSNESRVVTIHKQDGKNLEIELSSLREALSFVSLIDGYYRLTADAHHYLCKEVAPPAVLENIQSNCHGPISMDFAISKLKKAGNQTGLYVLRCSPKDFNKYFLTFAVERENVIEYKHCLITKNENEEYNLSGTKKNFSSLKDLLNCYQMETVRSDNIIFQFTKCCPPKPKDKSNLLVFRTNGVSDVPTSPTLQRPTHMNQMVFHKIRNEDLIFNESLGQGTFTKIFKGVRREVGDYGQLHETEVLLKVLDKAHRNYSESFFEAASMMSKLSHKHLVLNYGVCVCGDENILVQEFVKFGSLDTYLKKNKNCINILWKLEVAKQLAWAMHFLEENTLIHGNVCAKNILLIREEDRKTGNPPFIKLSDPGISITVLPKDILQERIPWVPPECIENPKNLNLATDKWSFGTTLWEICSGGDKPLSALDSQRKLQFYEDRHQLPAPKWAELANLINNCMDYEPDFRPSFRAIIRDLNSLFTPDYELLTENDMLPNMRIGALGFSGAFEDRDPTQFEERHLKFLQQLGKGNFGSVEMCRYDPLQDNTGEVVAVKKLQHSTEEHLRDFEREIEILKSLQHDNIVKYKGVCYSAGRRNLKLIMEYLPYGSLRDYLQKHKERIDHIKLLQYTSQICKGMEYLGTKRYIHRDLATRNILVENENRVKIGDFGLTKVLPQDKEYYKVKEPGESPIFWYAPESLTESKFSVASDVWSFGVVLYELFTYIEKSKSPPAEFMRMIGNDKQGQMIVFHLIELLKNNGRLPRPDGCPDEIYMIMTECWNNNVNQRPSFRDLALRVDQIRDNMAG

| Structure (SMILES) | IC50 (JAK2; [1]) | JAK3/JAK2 (times) (JAK3; [2]) | JAK1/JAK2 (times) (JAK1) | IC50 (JAK2) | JAK3/JAK2 (times) (JAK3) |
| --- | --- | --- | --- | --- | --- |
| N#CCC1(n2cc(-c3nccc4nc(NC(=O)C5CNC5)nn34)cn2)CN(S(=O)(=O)C(F)(F)F)C1 [WX06, N-[5-[1-[3-(cyanomethyl)-1-(trifluoromethylsulfonyl)cyclobutylamine-3-yl]pyrazole-4-yl]-[1,2,4]triazolo[1,5-c]pyrimidin-2-yl]cyclobutylamine-3-formamide] | 10 to 100 nM | F3 (10 < F3 ≤ 25) | F1 (1 ≤ F1 ≤ 5) | – | – |
| N#CCC1(n2cc(-c3nccc4nc(NC(=O)C5CC5)nn34)cn2)CN(C(=O)C2CC2)C1 [WX11, N-[5-[1-[3-(cyanomethyl)-1-(cyclopropylcarbonyl)azetidine-3-]pyrazole-4-]-[1,2,4]triazoloe[1,5-c]pyrimidine2-] cyclopropane carboxamide] | 100 to 1000 nM | F3 (10 < F3 ≤ 25) | F2 (5 < F2 ≤ 10) | – | – |
| CCS(=O)(=O)N1CC(CC#N)(n2cc(-c3cccn4nc(NC(=O)C(F)(F)F)nc34)cn2)C1 [WX22, N-(8-(1-(3-(cyanomethyl)-1-(ethylsulfonyl)azetidine-3-yl)-1H-pyrazole-4-yl)-[1,2,4]triazolo[1,5-a]pyridin-2-yl)-2,2,2-trifluoroacetamide] | 100 to 1000 nM | F3 (10 < F3 ≤ 25) | F1 (1 ≤ F1 ≤ 5) | – | – |
| CS(=O)(=O)N1CC(CC#N)(n2cc(-c3nccc4nc(N)nn34)cn2)C1 [WX04, 2-[3-[4-(2-amino-[1,2,4]triazolo[1,5-c]pyrimidin-5-yl)pyrazole-1-yl]-1-methylsulfonyl-cyclobutylamine-3-yl] acetonitrile] | 10 to 100 nM | F3 (10 < F3 ≤ 25) | F1 (1 ≤ F1 ≤ 5) | – | – |
| CS(=O)(=O)N1CC(CC#N)(n2cc(-c3cccc4nc(NC(=O)C5CC5)nn34)cn2)C1 [WX15] | < 10 nM | F4 (25 < F4 ≤ 100) | F1 (1 ≤ F1 ≤ 5) | – | – |
| N#CCC1(n2cc(-c3cccn4nc(NC(=O)C(F)(F)F)nc34)cn2)CN(S(=O)(=O)C2CC2)C1 [WX23] | 100 to 1000 nM | F3 (10 < F3 ≤ 25) | F1 (1 ≤ F1 ≤ 5) | – | – |
| N#CCC1(n2cc(-c3cccc4nc(NC(=O)C5CC5)nn34)cn2)CN(S(=O)(=O)C2CC2)C1 [WX08, N-(5-(1-(3-(cyanomethyl)-1-(cyclopropylsulfonyl)azetidine-3-yl)-1H-pyrazole-4-yl)-[1,2,4]triazolo[1,5-a]pyridin-2-yl)cyclopropane formamide] | < 10 nM | F4 (25 < F4 ≤ 100) | F1 (1 ≤ F1 ≤ 5) | – | – |
| N#CCC1(n2cc(-c3nccc4nc(NC(=O)C5CC5)nn34)cn2)CN(S(=O)(=O)C(F)(F)F)C1 [WX02, N-[5-[1-[3-(cyanomethyl)-1-(trifluoromethylsulfonyl)azetidine-3-yl]pyrazole-4-yl]-[1,2,4]triazolo[1,5-c]pyrimidin-2-yl]cyclopropanecarboxamide] | < 10 nM | F3 (10 < F3 ≤ 25) | F1 (1 ≤ F1 ≤ 5) | – | – |
| N#CCC1(n2cc(-c3cccc4nc(NC(=O)C5CC5)nn34)cn2)CN(S(=O)(=O)C(F)F)C1 [WX14, N-[5-[1-[3-(cyanomethyl)-1-(difluoromethylsulfonyl)azetidine-3-]pyrazole-4-]-[1,2,4]triazolo[1,5-c]pyridin-2-]cyclopropyl carboxamide] | < 10 nM | F4 (25 < F4 ≤ 100) | F2 (5 < F2 ≤ 10) | – | – |
| N#CCC1(n2cc(-c3nccc4nc(NC(=O)C5CC5)nn34)cn2)CN(S(=O)(=O)C(F)F)C1 [WX13, N-[5-[1-[3-(cyanomethyl)-1-(difluoromethylsulfonyl)-azetidine-3-]pyrazole-4-]-[1,2,4]triazoloe[1,5-c]pyrimidine2-]cyclopropane carboxamide] | < 10 nM | F4 (25 < F4 ≤ 100) | F3 (10 < F3 ≤ 25) | – | – |
| N#CCC1(n2cc(-c3cccc4ncnn34)cn2)CN(S(=O)(=O)C(F)(F)F)C1 [WX17, 2-[3-[4-([1,2,4]triazolo[1,5-a]pyridin-5-)pyrazole-1-]-1-(trifluoromethylsulfonyl)azetidine-3-]acetonitrile] | 10 to 100 nM | F3 (10 < F3 ≤ 25) | F1 (1 ≤ F1 ≤ 5) | – | – |
| CS(=O)(=O)N1CC(CC#N)(n2cc(-c3cccc4nc(N)oc34)cn2)C1 [WX29, 2-(3-(4-(2-aminobenzo[d]oxazole-7-yl)-1H-pyrazole-1-yl)-1-(methylsulfonyl)azetidin-3-yl)acetonitrile] | < 10 nM | F4 (25 < F4 ≤ 100) | F3 (10 < F3 ≤ 25) | – | – |
| CS(=O)(=O)N1CC(CC#N)(n2cc(-c3cccc4nc(NC(=O)C5CC5)sc34)cn2)C1 [WX28, N-(7-(1-(3-(cyanomethyl)-1-(methylsulfonyl)azetidin-3-yl)-1H-pyrazole-4-yl)benzo[d]thiazole-2-yl) cyclopropanecarboxamide] | < 10 nM | F4 (25 < F4 ≤ 100) | F3 (10 < F3 ≤ 25) | – | – |
| COCC(=O)N1CC(CC#N)(n2cc(-c3nccc4nc(NC(=O)C5CC5)nn34)cn2)C1 [WX10, N-[5-[1-[3-(cyanomethyl)-1-(2-methoxyacetyl)azetidine-3-]pyrazole-4-]-[1,2,4]triazoloe[1,5-c]pyrimidine2-] cyclopropane carboxamide] | 100 to 1000 nM | F1 (1 ≤ F1 ≤ 5) | F1 (1 ≤ F1 ≤ 5) | – | – |
| COCC(=O)Nc1nc2ccnc(-c3cnn(C4(CC#N)CN(S(=O)(=O)C(F)(F)F)C4)c3)n2n1 [WX24, N-(5-(1-(3-(cyanomethyl)-1-((trifluoromethyl)sulfonyl)azetidine-3-yl)-1H-pyrazole-4-yl)-[1,2,4]triazolo[1,5-c]pyridin-2-yl)-2-methoxyacetamide] | 10 to 100 nM | F4 (25 < F4 ≤ 100) | F3 (10 < F3 ≤ 25) | – | – |
| N#CCC1(n2cc(-c3nccc4nc(N)nn34)cn2)CN(S(=O)(=O)C(F)(F)F)C1 [WX05, 2-[3-[4-(2-amino-[1,2,4]triazolo[1,5-c]pyrimidin-5-yl)pyrazole-1-yl]-1-(trifluoromethylsulfonyl)cyclobutylamine-3-yl]acetonitrile] | 10 to 100 nM | F3 (10 < F3 ≤ 25) | F1 (1 ≤ F1 ≤ 5) | – | – |
| CS(=O)(=O)N1CC(CC#N)(n2cc(-c3cccc4nc(N)sc34)cn2)C1 [WX27, 2-(3-(4-(2-aminobenzo[d]thiazole-7-yl)-1H-pyrazole-1-yl)-(methylsulfonyl)azetidine-3-yl) methyl cyanide] | – | – | F3 (10 < F3 ≤ 25) | < 10 nM | F2 (key: 1 ≤ F1 ≤ 5; 5 < F2 ≤ 10; 10 < F3 ≤ 25; 25 < F4 ≤ 100) |
| N#CCC1(n2cc(-c3nccc4nc(NC(=O)C5CC(F)(F)C5)nn34)cn2)CN(S(=O)(=O)C(F)(F)F)C1 [WX32, N-[5-[1-[3-(cyanomethyl)-1-(trifluoromethylsulfonyl)azetidin-3-yl]pyrazole-4-yl]-[1,2,4]triazolo[1,5-c]pyrimidin-2-yl]-3,3-difluoro-cyclobutanecarboxamide] | 100 to 1000 nM | F3 (10 < F3 ≤ 25) | F2 (5 < F2 ≤ 10) | – | – |
| N#CCC1(n2cc(-c3cccc4nc(N)nn34)cn2)CN(S(=O)(=O)C(F)(F)F)C1 [WX18] | < 10 nM | F3 (10 < F3 ≤ 25) | F1 (1 ≤ F1 ≤ 5) | – | – |
